# Source: PubChem BioAssay AID2060904 (Molecular Pharmacology Branch, DTP, NCI, 2025)
# Tested on: 349418-098-R-PDC complex spheroid viability
# Assay: Anticancer human tumor 349418-098-R-PDC patient-derived lung adenocarcinoma cell line growth inhibition [RAS]
# Settings: for IC50: curve of first compound; for viability, T/C: stronger effect = lower value
# In short: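 Agents were tested in combination matrices in half-log decrements from a top concentration at or near clinical Cmax (10 microM if undetermined). Targets were multi-cell spheroids of tumour lines plus HUVEC and MSC stromal cells.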
# [1] = second compound 0.000949 µM, first compound 0.0316 µM
# [2] = second compound 0.000949 µM, first compound 0.1 µM
# [3] = second compound 0.000949 µM, first compound 0.316 µM
# [4] = second compound 0.000949 µM, first compound 1 µM
# [5] = second compound 0.000949 µM, first compound 3.16 µM
# [6] = second compound 0.000949 µM, first compound 10 µM
# [7] = second compound 0.003 µM, first compound 0.0316 µM
# [8] = second compound 0.003 µM, first compound 0.1 µM
# [9] = second compound 0.003 µM, first compound 0.316 µM
# [10] = second compound 0.003 µM, first compound 1 µM
# [11] = second compound 0.003 µM, first compound 3.16 µM
# [12] = second compound 0.003 µM, first compound 10 µM
# [13] = second compound 0.00949 µM, first compound 0.0316 µM
# [14] = second compound 0.00949 µM, first compound 0.1 µM
# [15] = second compound 0.00949 µM, first compound 0.316 µM
# [16] = second compound 0.00949 µM, first compound 1 µM
# [17] = second compound 0.00949 µM, first compound 3.16 µM
# [18] = second compound 0.00949 µM, first compound 10 µM
# [19] = second compound 0.03 µM, first compound 0.0316 µM
# [20] = second compound 0.03 µM, first compound 0.1 µM
# [21] = second compound 0.03 µM, first compound 0.316 µM
# [22] = second compound 0.03 µM, first compound 1 µM
# [23] = second compound 0.03 µM, first compound 3.16 µM
# [24] = second compound 0.03 µM, first compound 10 µM
# [25] = second compound 0.0949 µM, first compound 0.0316 µM
# [26] = second compound 0.0949 µM, first compound 0.1 µM
# [27] = second compound 0.0949 µM, first compound 0.316 µM
# [28] = second compound 0.0949 µM, first compound 1 µM
# [29] = second compound 0.0949 µM, first compound 3.16 µM
# [30] = second compound 0.0949 µM, first compound 10 µM
# [31] = second compound 0.3 µM, first compound 0.0316 µM
# [32] = second compound 0.3 µM, first compound 0.1 µM
# [33] = second compound 0.3 µM, first compound 0.316 µM
# [34] = second compound 0.3 µM, first compound 1 µM
# [35] = second compound 0.3 µM, first compound 3.16 µM
# [36] = second compound 0.3 µM, first compound 10 µM
# 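Also: spheroids exposed to compound for seven days before viability readout.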
smiles,measurement,setting,value
Cc1nc(N2CCC3(CC2)COC(C)C3N)c(CO)nc1Sc1ccnc(N)c1Cl (stereo unspecified) + CCn1c(-c2cccnc2C(C)OC)c2c3cc(ccc31)N1CCOC(CC(NC(=O)C(C(C)C)N(C)C(=O)C3(F)CCN(C(=O)C#CC(C)(C)N(C)C)CC3)C(=O)N3CCCC(N3)C(=O)OCC(C)(C)C2)C1,IC50,second compound 0.000949 µM,> 10 µM
same,IC50,second compound 0.003 µM,> 10 µM
same,IC50,second compound 0.00949 µM,> 10 µM
same,IC50,second compound 0.03 µM,> 10 µM
same,IC50,second compound 0.0949 µM,> 10 µM
same,IC50,second compound 0.3 µM,> 10 µM
same,"viability, T/C",[1],97.9%
same,"viability, T/C",[2],86.4%
same,"viability, T/C",[3],102%
same,"viability, T/C",[4],103%
same,"viability, T/C",[5],101%
same,"viability, T/C",[6],89.5%
same,"viability, T/C",[7],102%
same,"viability, T/C",[8],91.9%
same,"viability, T/C",[9],119%
same,"viability, T/C",[10],96.7%
same,"viability, T/C",[11],97.1%
same,"viability, T/C",[12],108%
same,"viability, T/C",[13],103%
same,"viability, T/C",[14],106%
same,"viability, T/C",[15],106%
same,"viability, T/C",[16],99.8%
same,"viability, T/C",[17],118%
same,"viability, T/C",[18],90.5%
same,"viability, T/C",[19],119%
same,"viability, T/C",[20],107%
same,"viability, T/C",[21],99.3%
same,"viability, T/C",[22],110%
same,"viability, T/C",[23],115%
same,"viability, T/C",[24],91.5%
same,"viability, T/C",[25],98.5%
same,"viability, T/C",[26],98.9%
same,"viability, T/C",[27],105%
same,"viability, T/C",[28],87.9%
same,"viability, T/C",[29],101%
same,"viability, T/C",[30],100%
same,"viability, T/C",[31],83.7%
same,"viability, T/C",[32],89.3%
same,"viability, T/C",[33],100%
same,"viability, T/C",[34],87.8%
same,"viability, T/C",[35],101%
same,"viability, T/C",[36],77.4%
NC1c2ccccc2OC12CCN(c1cnc3c(N4CCCc5ncccc54)n[nH]c3n1)CC2 (stereo unspecified) + CCn1c(-c2cccnc2C(C)OC)c2c3cc(ccc31)N1CCOC(CC(NC(=O)C(C(C)C)N(C)C(=O)C3(F)CCN(C(=O)C#CC(C)(C)N(C)C)CC3)C(=O)N3CCCC(N3)C(=O)OCC(C)(C)C2)C1,IC50,second compound 0.000949 µM,> 10 µM
same,IC50,second compound 0.003 µM,> 10 µM
same,IC50,second compound 0.00949 µM,> 10 µM
same,IC50,second compound 0.03 µM,> 10 µM
same,IC50,second compound 0.0949 µM,> 10 µM
same,IC50,second compound 0.3 µM,> 10 µM
same,"viability, T/C",[1],78.4%
same,"viability, T/C",[2],93.4%
same,"viability, T/C",[3],90.7%
same,"viability, T/C",[4],97%
same,"viability, T/C",[5],108%
same,"viability, T/C",[6],75.5%
same,"viability, T/C",[7],97.2%
same,"viability, T/C",[8],95.3%
same,"viability, T/C",[9],91%
same,"viability, T/C",[10],99.4%
same,"viability, T/C",[11],98.5%
same,"viability, T/C",[12],71.7%
same,"viability, T/C",[13],108%
same,"viability, T/C",[14],95.4%
same,"viability, T/C",[15],90.3%
same,"viability, T/C",[16],116%
same,"viability, T/C",[17],93.6%
same,"viability, T/C",[18],59.8%
same,"viability, T/C",[19],93.9%
same,"viability, T/C",[20],102%
same,"viability, T/C",[21],115%
same,"viability, T/C",[22],96.8%
same,"viability, T/C",[23],98.1%
same,"viability, T/C",[24],85%
same,"viability, T/C",[25],105%
same,"viability, T/C",[26],103%
same,"viability, T/C",[27],116%
same,"viability, T/C",[28],91.3%
same,"viability, T/C",[29],89.7%
same,"viability, T/C",[30],59.3%
same,"viability, T/C",[31],84.8%
same,"viability, T/C",[32],68.8%
same,"viability, T/C",[33],102%
same,"viability, T/C",[34],90.8%
same,"viability, T/C",[35],85.2%
same,"viability, T/C",[36],61.4%
Nc1ccn(C2OC(CO)C(O)C2(F)F)c(=O)n1 (stereo unspecified) + CCn1c(-c2cccnc2C(C)OC)c2c3cc(ccc31)N1CCOC(CC(NC(=O)C(C(C)C)N(C)C(=O)C3(F)CCN(C(=O)C#CC(C)(C)N(C)C)CC3)C(=O)N3CCCC(N3)C(=O)OCC(C)(C)C2)C1,IC50,second compound 0.000949 µM,< 0.00316 µM
same,IC50,second compound 0.003 µM,< 0.00316 µM
same,IC50,second compound 0.00949 µM,< 0.00316 µM
same,IC50,second compound 0.03 µM,< 0.00316 µM
same,IC50,second compound 0.0949 µM,< 0.00316 µM
same,IC50,second compound 0.3 µM,< 0.00316 µM
same,"viability, T/C","second compound 0.000949 µM, first compound 0.00316 µM",23.6%
same,"viability, T/C","second compound 0.000949 µM, first compound 0.01 µM",7.06%
same,"viability, T/C",[1],5.46%
same,"viability, T/C",[2],4.18%
same,"viability, T/C",[3],4.47%
same,"viability, T/C",[4],3.97%
same,"viability, T/C","second compound 0.003 µM, first compound 0.00316 µM",22%
same,"viability, T/C","second compound 0.003 µM, first compound 0.01 µM",6.17%
same,"viability, T/C",[7],5.46%
same,"viability, T/C",[8],5.26%
same,"viability, T/C",[9],4.96%
same,"viability, T/C",[10],4.2%
same,"viability, T/C","second compound 0.00949 µM, first compound 0.00316 µM",20.5%
same,"viability, T/C","second compound 0.00949 µM, first compound 0.01 µM",8.01%
same,"viability, T/C",[13],5.62%
same,"viability, T/C",[14],4.89%
same,"viability, T/C",[15],6.38%
same,"viability, T/C",[16],3.73%
same,"viability, T/C","second compound 0.03 µM, first compound 0.00316 µM",19.7%
same,"viability, T/C","second compound 0.03 µM, first compound 0.01 µM",6.08%
same,"viability, T/C",[19],4.75%
same,"viability, T/C",[20],5.13%
same,"viability, T/C",[21],5.14%
same,"viability, T/C",[22],3.58%
same,"viability, T/C","second compound 0.0949 µM, first compound 0.00316 µM",19.9%
same,"viability, T/C","second compound 0.0949 µM, first compound 0.01 µM",7.64%
same,"viability, T/C",[25],4.68%
same,"viability, T/C",[26],4.96%
same,"viability, T/C",[27],5.01%
same,"viability, T/C",[28],4.01%
same,"viability, T/C","second compound 0.3 µM, first compound 0.00316 µM",16.6%
same,"viability, T/C","second compound 0.3 µM, first compound 0.01 µM",6.52%
same,"viability, T/C",[31],4.44%
same,"viability, T/C",[32],4.51%
same,"viability, T/C",[33],5.17%
same,"viability, T/C",[34],3.99%
